The test system of series [1] is normal ICR mouse. The experiment in a line: Oral glucose tolerance test (OGTT), acute hypoglycemic effect of single oral dose. It is filed as in vivo. The conditions noted are these: for hypoglycemic ability in vivo, oral glucose tolerance test: single dose 3 mg/kg by gavage, glucose 2.5 g/kg after 6 hours, FIGS. 7-10. As for the experimental part: Acute hypoglycemic effect of single dose through mouth on the normal ICR mouse
Animal: ICR mouse (8-10 weeks old, sex: male, weight: 25-30 g, purchased from Shanghai SLAC Laboratory Animal Center).
1. Two days before the experiment, the food consumption was recorded and the daily food consumption of each animal was calculated;
2. The animals fasted overnight (⅓ of daily food consumption was provided, about 2 g);
3. The blood glucose was measured on the second day.
4. The medicament was administrated through gavage (1 mouse/min). After 6 hours, the blood glucose was measured. Glucose was administrated through gavage according to the body weight (2.5 g/kg). The blood glucose value was monitored at 30 min, 60 min, 90 min, and 120 min after administration.

Series [2] deals with T1, DPP IV (Mus musculus, UniProt P28843).
T1 construct: from tissue; host or cells: plasma of ICR mouse
T1 sequence (P28843 37-760 limits assumed): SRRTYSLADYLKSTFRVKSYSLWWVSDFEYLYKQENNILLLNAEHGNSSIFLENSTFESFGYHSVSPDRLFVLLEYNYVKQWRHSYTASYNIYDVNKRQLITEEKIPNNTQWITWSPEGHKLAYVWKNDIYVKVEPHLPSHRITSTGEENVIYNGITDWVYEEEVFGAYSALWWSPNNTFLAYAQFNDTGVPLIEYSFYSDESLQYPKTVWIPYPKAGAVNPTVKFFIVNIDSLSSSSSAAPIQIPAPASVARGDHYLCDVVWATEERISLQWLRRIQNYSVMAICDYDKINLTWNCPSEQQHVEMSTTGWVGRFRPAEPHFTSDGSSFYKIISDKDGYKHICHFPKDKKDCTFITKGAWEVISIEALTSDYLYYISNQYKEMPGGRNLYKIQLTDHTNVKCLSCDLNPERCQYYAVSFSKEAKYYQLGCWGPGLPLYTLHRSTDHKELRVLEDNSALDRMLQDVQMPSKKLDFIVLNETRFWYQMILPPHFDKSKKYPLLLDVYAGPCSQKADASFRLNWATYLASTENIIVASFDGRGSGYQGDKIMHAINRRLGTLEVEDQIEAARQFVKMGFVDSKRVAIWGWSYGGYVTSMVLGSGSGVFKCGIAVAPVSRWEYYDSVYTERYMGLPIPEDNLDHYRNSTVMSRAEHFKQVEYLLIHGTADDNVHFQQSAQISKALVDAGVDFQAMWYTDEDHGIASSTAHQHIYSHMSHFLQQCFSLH
Kind of series: DPP IV inhibitory activity in vivo: DPP IV activity in plasma of ICR mouse after single oral dose. The conditions noted are these: oral 3 mg/kg, compared with Alogliptin and Vildagliptin (LAF237), FIG. 1-6. As for the experimental part:
Animals: ICR mouse (8-10 weeks old; sex: male; 25 g-30 g of body weight, purchased from Shanghai SLAC Laboratory Animal Center).
Meanwhile the solvent group was used as blank control. The blood was taken from orbital venous plexus of the mouse before administration, and 30, 60, 2 h, 4 h, 6 h, 8 h and […] after administration, respectively and loaded into Eppendorf tube (Qizhong Industrial (Shanghai) co., Ltd.) treated by anticoagulant. The plasma was obtained by centrifugation and DPP IV activity was determined.

Series [3] is described as follows: Safety evaluation: single dose 100 mg/kg by gavage, one week observation. The conditions noted are these: for body weight and viscera index versus normal control group (in words) / acute toxicity / kidney index versus normal control group (in words): ICR mouse; for body weight and viscera index versus normal control group (in words) / Kidney index / Liver index / Spleen index / body weight / food consumption: 100 mg/kg single dose; for acute toxicity: 100 mg/kg single dose by gavage, one week; for kidney index versus normal control group (in words): 100 mg/kg, 7th day after administration; for Kidney index / Liver index / Spleen index / body weight / food consumption: normal ICR mouse; for Kidney index / Liver index / Spleen index: 7th day. It is filed as in vivo, ICR mouse. How it is done:
After grouping, each compound was administrated once through gavage according to the dose of 100 mg/kg at the same time.

Take `N#Cc1ccccc1Cn1c(N2CCC[C@@H](N)C2)nc2c(CO)csc2c1=O` [DC291004]: in series [1], the “hypoglycemic ability in vivo, oral glucose tolerance test” value was “comparable to that of Alogliptin”. Further, the “DPP IV activity of ICR mouse plasma after single dose (given as hypoglycemic ability in vivo)” value (“DPP IV activity of ICR mouse plasma” below) in series [2] was “comparable to that of Alogliptin (3 mg), and better than that of Vildagliptin (LAF237, 15 mg)”. Further, the “body weight and viscera index versus normal control group (in words)” value in series [3] is “no statistical difference”. In series [3], the acute toxicity result is on record as “did not reflect obvious acute toxicity”. Also, the “kidney index versus normal control group (in words)” value in series [3] is listed as “did not significantly differ”. For the same compound, the Kidney index in series [3] is 1.5 ± 0.1%. The compound also displayed a Liver index in series [3] of 5.3 ± 0.3%. This compound also showed a Spleen index in series [3] of 0.4 ± 0.0%. The body weight in series [3] (1 d after administration) stood at 30.3 ± 1.0 g; in series [3] (2 d after administration) it was 30.8 ± 0.9 g; in series [3] (3 d after administration), 31.0 ± 1.2 g; in series [3] (4 d after administration), 31.6 ± 1.2 g; in series [3] (5 d after administration), 32.0 ± 1.6 g; in series [3] (6 d after administration), 32.0 ± 1.2 g. Moreover, the body weight in series [3] (7 d after administration) came to 32.5 ± 1.3 g; in series [3] (before administration), 30.2 ± 0.7 g. Further, the food consumption in series [3] (1 d after administration) came to 18.7 g · day^−1 · cage^−1; in series [3] (2 d after administration) it was 21.0 g · day^−1 · cage^−1; in series [3] (3 d after administration), 21.1 g · day^−1 · cage^−1; in series [3] (4 d after administration), 21.5 g · day^−1 · cage^−1; in series [3] (5 d after administration), 21.9 g · day^−1 · cage^−1; in series [3] (6 d after administration), 21.5 g · day^−1 · cage^−1. The food consumption was determined as 24.1 g · day^−1 · cage^−1 in series [3] (7 d after administration) and 22.5 g · day^−1 · cage^−1 in series [3] (before administration).

`N#Cc1ccccc1Cn1c(N2CCC[C@@H](N)C2)nc2c(C(=O)NC3CCOCC3)csc2c1=O` [DC291034]: the “hypoglycemic ability in vivo, oral glucose tolerance test” value in series [1] is “comparable to that of Alogliptin”.

In the case of `COC(=O)c1csc2c(=O)n(Cc3ccccc3C#N)c(N3CCC[C@@H](N)C3)nc12` [DC291009], in series [1] (single administration at multiple doses, FIGS. 11-12), the “hypoglycemic ability in vivo, oral glucose tolerance test after multiple single-dose administration” value was “comparable to that of Alogliptin”. The “hypoglycemic ability in vivo, oral glucose tolerance test” value in series [1] was “comparable to that of Alogliptin”. Moreover, in series [2], the “DPP IV activity of ICR mouse plasma” value was “comparable to that of Alogliptin (3 mg), and better than that of Vildagliptin (LAF237, 15 mg)”. Moreover, the “body weight and viscera index versus normal control group (in words)” value in series [3] is recorded as “no statistical difference”. For the same compound, in series [3], the acute toxicity result is on record as “did not reflect obvious acute toxicity”. Also, the “kidney index versus normal control group (in words)” value in series [3] is “slightly lower than that of normal control group”. Also, the Kidney index in series [3] is given as 1.4 ± 0.1%. Besides, in series [3], the Liver index is recorded as 5.3 ± 0.2%. Besides, the Spleen index in series [3] was determined as 0.4 ± 0.1%. The body weight turned out to be 31.3 ± 2.0 g in series [3] (1 d after administration); 31.5 ± 2.3 g in series [3] (2 d after administration); 31.8 ± 2.3 g in series [3] (3 d after administration); 32.3 ± 2.2 g in series [3] (4 d after administration); 32.4 ± 2.5 g in series [3] (5 d after administration); 32.6 ± 2.6 g in series [3] (6 d after administration). In addition, the body weight in series [3] (7 d after administration) turned out to be 33 ± 2.6 g; in series [3] (before administration) it was 30.8 ± 2.2 g. The food consumption stood at 21.2 g · day^−1 · cage^−1 in series [3] (1 d after administration); 21.3 g · day^−1 · cage^−1 in series [3] (2 d after administration); 22.6 g · day^−1 · cage^−1 in series [3] (3 d after administration); 22.8 g · day^−1 · cage^−1 in series [3] (4 d after administration); 22.2 g · day^−1 · cage^−1 in series [3] (5 d after administration); 21.9 g · day^−1 · cage^−1 in series [3] (6 d after administration). Also, the food consumption in series [3] (7 d after administration) amounted to 23.8 g · day^−1 · cage^−1; in series [3] (before administration) it was 23.3 g · day^−1 · cage^−1.

For `N#Cc1ccccc1Cn1c(N2CCC[C@@H](N)C2)nc2cc(COCc3ccccc3)sc2c1=O` [DC291402], the “hypoglycemic ability in vivo, oral glucose tolerance test” value in series [1] was “comparable to that of Alogliptin”. Also, the “DPP IV activity of ICR mouse plasma” value in series [2] was “comparable to that of Alogliptin (3 mg), and better than that of Vildagliptin (LAF237, 15 mg)”.

On to `N#Cc1ccccc1Cn1c(N2CCC[C@@H](N)C2)nc2c(CN3CCOCC3)csc2c1=O` [DC291005], for which the “DPP IV activity of ICR mouse plasma” value in series [2] was “comparable to that of Alogliptin (3 mg), and better than that of Vildagliptin (LAF237, 15 mg)”.

With `N#Cc1ccccc1Cn1c(N2CCC[C@@H](N)C2)nc2c(C#N)csc2c1=O` [DC291036], in series [1], the “hypoglycemic ability in vivo, oral glucose tolerance test” value was “comparable to that of Alogliptin”.

For `CC(=O)OCc1cc2nc(N3CCC[C@@H](N)C3)n(Cc3ccccc3C#N)c(=O)c2s1` [DC291405], the “DPP IV activity of ICR mouse plasma” value in series [2] is “comparable to that of Alogliptin (3 mg), and better than that of Vildagliptin (LAF237, 15 mg)”.

With `N#Cc1ccccc1Cn1c(N2CCC[C@@H](N)C2)nc2cc(C(Br)Br)sc2c1=O` [DC291411], the “hypoglycemic ability in vivo, oral glucose tolerance test” value in series [1] was “comparable to that of Alogliptin”. The “DPP IV activity of ICR mouse plasma” value in series [2] is “comparable to that of Alogliptin (3 mg), and better than that of Vildagliptin (LAF237, 15 mg)”. The “body weight and viscera index versus normal control group (in words)” value in series [3] is reported as “no statistical difference”. The acute toxicity entry in series [3] is reported as “did not reflect obvious acute toxicity”. The “kidney index versus normal control group (in words)” value in series [3] is “slightly lower than that of normal control group”. Further, in series [3], the Kidney index is given as 1.4 ± 0.1%. Also, in series [3], the Liver index came out at 5.0 ± 0.4%. In series [3], this compound yielded a Spleen index of 0.4 ± 0.0%. The body weight is given as 30.5 ± 1.6 g in series [3] (1 d after administration); 31.2 ± 1.6 g in series [3] (2 d after administration); 31.0 ± 1.7 g in series [3] (3 d after administration); 31.5 ± 1.9 g in series [3] (4 d after administration); 31.8 ± 1.5 g in series [3] (5 d after administration); 31.6 ± 1.8 g in series [3] (6 d after administration). For the same compound, the body weight in series [3] (7 d after administration) came to 32.1 ± 1.7 g; in series [3] (before administration), 30 ± 1.5 g. For the same compound, the food consumption in series [3] (1 d after administration) came out at 19.3 g · day^−1 · cage^−1; in series [3] (2 d after administration), 21.3 g · day^−1 · cage^−1; in series [3] (3 d after administration), 18.8 g · day^−1 · cage^−1; in series [3] (4 d after administration) it was 18.3 g · day^−1 · cage^−1; in series [3] (5 d after administration) it was 17.7 g · day^−1 · cage^−1; in series [3] (6 d after administration), 20.5 g · day^−1 · cage^−1. Moreover, the food consumption in series [3] (7 d after administration) amounted to 21.9 g · day^−1 · cage^−1; in series [3] (before administration), 20.8 g · day^−1 · cage^−1.
